pIC50: −log10 of the molar value. Where only a bound is given, the exact number is not on record here.

Data set [1] deals with Leishmania donovani. Kind of data set: Antileishmanial activity against Leishmania donovani MHOM/IN/1983/AG83 axenic amastigotes assessed as inhibition of growth incubated for 48 hrs by flow cytometric analysis. Type of data set: functional, organism-based. The note with it: MHOM/IN/1983/AG83, 48 h. (In general: A flow cytometer gives signals particle by particle.)
The nature of data set [2]: Cytotoxicity against human HepG2 cells incubated for 48 hrs by PI staining based flow cytometric analysis. The data set is classed as toxicity, cell-based.
Data set [3] can be described thus: Stability in mouse plasma assessed as compound remaining measured after 2 hrs by LC-MS/MS analysis. The data set is classed as ADME, cell-free. The note with it: read-out: Stability.
Data set [4] can be described thus: Cytotoxicity against human THP-1 cells incubated for 72 hrs by DAPI staining based analysis. The data set is classed as toxicity, cell-based.
The nature of data set [5]: Metabolic stability in mouse liver microsomes assessed as hepatic blood flow preincubated for 10 mins and measured after 60 mins by LC-MS/MS analysis. The note with it: read-out: QH. Type of data set: ADME, Microsome. A general note: Microsomes from liver hold many membrane-bound enzymes, among them those of drug oxidation.
The nature of data set [6]: Metabolic stability in human liver microsomes assessed as hepatic blood flow preincubated for 10 mins and measured after 60 mins by LC-MS/MS analysis. The data set is classed as ADME, Microsome. The settings on record: read-out: QH.
Data set [7] is described as follows: Selectivity index, ratio of CC50 for cytotoxicity against human HepG2 cells to IC50 for antileishmanial activity against Leishmania donovani MHOM/IN/1983/AG83 axenic amastigotes. Type of data set: toxicity, cell-based. The settings on record: read-out: Ratio CC50/IC50.
The nature of data set [8]: Metabolic stability in mouse liver microsomes assessed as half-life preincubated for 10 mins and measured after 60 mins by LC-MS/MS analysis. The data set is classed as ADME, Microsome.
A short description of data set [9]: Metabolic stability in human liver microsomes assessed as half-life preincubated for 10 mins and measured after 60 mins by LC-MS/MS analysis. Type of data set: ADME, Microsome.
The nature of data set [10]: Stability in human plasma assessed as compound remaining measured after 2 hrs by LC-MS/MS analysis. The data set is classed as ADME, cell-free. The note with it: read-out: Stability.
Data set [11] in a line: Lipophilicity, logD of compound in 1-octanol and phosphate buffer at pH 7.4 by HPLC-UV analysis. Type of data set: physicochemical. The note with it: 1-octanol/phosphate buffer.
For data set [12], the system named is Leishmania donovani. Description: Antileishmanial activity against Leishmania donovani. Type of data set: functional, organism-based.
Data set [13] has as its system Leishmania donovani. Kind of data set: Antileishmanial activity against Leishmania donovani MHOM/IN/1983/AG83 axenic amastigotes assessed as inhibition of growth at 20 uM incubated for 48 hrs by flow cytometric analysis relative to control. The data set is classed as functional.
Data set [14] in a line: Cytotoxicity against human HepG2 cells assessed as inhibition of cell growth at 80 uM incubated for 48 hrs by PI staining based flow cytometric analysis relative to control. Type of data set: toxicity.

On to `COc1cc2c(N3CCCCC3)nc(NCc3ccc(Br)cc3)nc2cc1OC1CCCC1`, for which the negative logarithm of the IC50 (pIC50) in the data set on Leishmania donovani [1] was 5.59. Also, the half-maximal cytotoxic concentration (CC50) at 48 h in data set [2] was 28.1 µM. The remaining at 2 h amounted to 92.6% in data set [3] and 96.2% in data set [10]. In [4], the midpoint of cytotoxicity, the CC50 at 72 h, lay at 15.2 µM. Besides, the figures for the hepatic extraction ratio at 1 h in data set [5] and in [6] were 0.288 and 0.281, respectively. The selectivity ratio in data set [7] was 10.9. Further, the half-life in [8] came to 46.5 min; in data set [9], 83.4 min. Moreover, the logD in [11] turned out to be 2.6.

For `Cc1cc(N2CCc3ccccc3C2)nc(Nc2ccc(S(=O)(=O)N3CCOCC3)cc2)n1`, the negative logarithm of the IC50 (pIC50) in the data set with Leishmania donovani [12] was 5.30.

In turn, `COc1cc2c(N3CCCCC3)nc(NCc3cccc(Cl)c3)nc2cc1OC1CCCC1` yielded a cytotoxic concentration (CC50) at 72 h in [4] of 43.8 µM. In addition, in the data set with Leishmania donovani [13], the inhibition at 20 µM was ~12%.

For `COc1cc2c(N3CCCCC3)nc(NCc3ccc(F)cc3)nc2cc1OC1CCNC1` (stereo unspecified), the pIC50 with Leishmania donovani [1] is 5.33. Besides, the CC50 at 48 h in [2] amounted to 10.1 µM. Also, the remaining at 2 h in data set [3] was 99.1%; in [10], 99%. For the same molecule, the half-maximal cytotoxic concentration (CC50) at 72 h in data set [4] amounted to 6.3 µM. Moreover, the hepatic extraction ratio at 1 h in data set [5] was determined as 0.42; in data set [6], 0.21. For the same molecule, the selectivity ratio in data set [7] was determined as 2.18. The values for the half-life in data set [8] and in [9] were 52.1 min and > 120 min, respectively. The molecule further showed a logD in data set [11] of 2.37.

In the case of `COc1cc2c(N3CCCCC3)nc(Nc3ccc(C(F)(F)F)cc3)nc2cc1OC1CCCC1`, in data set [4], the 50% cytotoxic concentration (CC50) at 72 h was > 50 µM. In addition, the inhibition at 20 µM with Leishmania donovani [13] is ~35.3%.

Regarding `COc1cc2c(N3CCCCC3)nc(N(C)C)nc2cc1OC1CCCC1`, the pIC50 in the data set on Leishmania donovani [1] was 5.16. In data set [2], this molecule showed a CC50 at 48 h of 66.1 µM. The remaining at 2 h in data set [3] turned out to be 80.1%; in data set [10], 83.8%. For the same molecule, the midpoint of cytotoxicity in data set [4], the CC50 at 72 h, lay at 74.3 µM. In addition, the results for the hepatic extraction ratio at 1 h in [5] and in data set [6] were 0.579 and 0.452, respectively. For the same molecule, in data set [7], the selectivity ratio is 9.65. In addition, the half-life worked out at 13.7 min in data set [8] and 39 min in [9]. In addition, the pH-dependent lipophilicity (logD) in data set [11] came to 2.74.

On to `O=C1CN(C(=O)c2cccc(Nc3ncc(-c4ccc5c(c4)OCO5)cn3)c2)CCN1`, for which, in the data set with Leishmania donovani [12], the pIC50 is 5.30.

For `COc1cc2c(N3CCCCC3)nc(NCc3cccc(F)c3)nc2cc1OC1CCCC1`, in [4], the cytotoxic concentration (CC50) at 72 h is > 3 µM. For the same molecule, the inhibition at 20 µM in the data set with Leishmania donovani [13] was ~40.8%.

Consider `COc1ccc(-c2cnc(NC(=O)c3ccc(F)cc3)n2C)cc1`, for which the pIC50 is 4.82 in the data set with Leishmania donovani [1] and 5.92 in the data set with Leishmania donovani [12]. Moreover, in data set [4], the half-maximal cytotoxic concentration (CC50) at 72 h was > 50 µM.

Regarding `COc1cc2c(N3CCCCC3)nc(NC(=O)c3ccc(F)cc3)nc2cc1OC1CCCC1`, the negative logarithm of the IC50 (pIC50) in the data set on Leishmania donovani [1] was 5.27. Also, the CC50 at 48 h in data set [2] is > 80 µM. Further, in data set [14], the inhibition at 48 h, 80 µM amounted to 10.8%. For the same molecule, the remaining at 2 h was found to be 44.3% in [3] and 61% in data set [10]. The same molecule showed a CC50 at 72 h in data set [4] of 89.5 µM. The hepatic extraction ratio at 1 h is 0.494 in data set [5] and 0.575 in [6]. Further, in data set [7], the selectivity ratio was > 15. The half-life in data set [8] was found to be 19.4 min; in [9] it was 23.8 min. In addition, in [11], the logD was 4.64.

In the data set on Leishmania donovani [12], `COc1ccc(-c2cnc(NC(=O)c3cc(-c4ccccn4)n[nH]3)n2C)cc1` gave a pIC50 of 6.00.

`CCCCCCCCCCCCCCCCOP(=O)([O-])OCC[N+](C)(C)C` [MILTEFOSINE]: in the data set on Leishmania donovani [1], the pIC50 is 5.27. Also, the CC50 at 48 h in data set [2] was 51.6 µM. In [4], this molecule came in with a half-maximal cytotoxic concentration (CC50) at 72 h of 25 µM. The selectivity ratio in [7] was 9.38.

What is called pIC50 is the IC50 on a negative log10 scale, so that one unit is a factor of ten. The CC50 is the concentration that lowers cell viability or growth by half. A low value points to greater toxicity to the cells. As usually defined, the half-life is the time in which the quantity being followed falls by half. Broadly, the logD is the decadic logarithm of the distribution of all forms, ionised or not, between an organic phase and buffer at a given pH. A higher logD goes with higher lipophilicity. As a reminder, the inhibition is the share of the control response that was lost under treatment.
